Test [1] deals with T1, m5-HT2A (C57Bl/6 mouse 5-HT2A receptor) (Mus musculus, UniProt P35363). As to the kind of experiment: [3H]-inositol phosphate accumulation. The class given is cell-based.
Test [2] has as its target T2, m5-HT2C (C57Bl/6 mouse 5-HT2C-VNV receptor) (Mus musculus, UniProt P34968, I157V/I161V).
T2 sequence (P34968 33-459 I157V/I161V): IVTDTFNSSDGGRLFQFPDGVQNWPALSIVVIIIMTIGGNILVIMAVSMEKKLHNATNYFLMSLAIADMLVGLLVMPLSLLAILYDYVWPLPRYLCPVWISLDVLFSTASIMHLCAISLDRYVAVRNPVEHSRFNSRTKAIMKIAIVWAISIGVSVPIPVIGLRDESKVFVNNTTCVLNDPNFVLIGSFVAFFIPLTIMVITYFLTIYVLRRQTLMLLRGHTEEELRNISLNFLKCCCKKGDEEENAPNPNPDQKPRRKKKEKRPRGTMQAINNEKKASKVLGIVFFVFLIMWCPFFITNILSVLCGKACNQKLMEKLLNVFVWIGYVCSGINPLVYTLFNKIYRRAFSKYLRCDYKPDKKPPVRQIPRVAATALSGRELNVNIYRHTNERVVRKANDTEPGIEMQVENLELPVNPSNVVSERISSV
Briefly: [3H]-mesulergine competition, HEK-293 membranes. The class given is binding.

In test [3] the target is T1, m5-HT2A (C57Bl/6 mouse 5-HT2A receptor). As to the kind of experiment: [3H]-ketanserin competition, HEK-293 membranes. The class given is binding.
For test [4], the target named is T3, h5-HT2C (human 5-HT2C-INI receptor) (Homo sapiens, UniProt P28335).
T3 sequence (P28335 33-458): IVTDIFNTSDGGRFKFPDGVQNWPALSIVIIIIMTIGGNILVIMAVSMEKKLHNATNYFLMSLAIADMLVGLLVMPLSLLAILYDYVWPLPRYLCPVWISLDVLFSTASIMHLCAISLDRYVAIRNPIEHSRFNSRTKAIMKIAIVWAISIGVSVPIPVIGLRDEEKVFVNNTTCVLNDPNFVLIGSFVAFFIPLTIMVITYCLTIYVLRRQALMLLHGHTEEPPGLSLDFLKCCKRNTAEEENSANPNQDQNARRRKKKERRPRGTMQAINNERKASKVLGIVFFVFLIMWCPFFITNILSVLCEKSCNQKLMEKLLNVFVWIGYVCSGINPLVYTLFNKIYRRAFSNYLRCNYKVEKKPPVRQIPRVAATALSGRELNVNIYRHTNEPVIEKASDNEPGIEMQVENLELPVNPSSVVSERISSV
As to the kind of experiment: [3H]-inositol phosphate accumulation. It counts as cell-based.

Test [5] deals with T2, m5-HT2C (C57Bl/6 mouse 5-HT2C-VNV receptor). Briefly: [3H]-inositol phosphate accumulation. It counts as cell-based.
The target in test [6] is T3, h5-HT2C (human 5-HT2C-INI receptor). As to the kind of experiment: biochemical. The class given is binding.
Test [7] addresses T4, h5-HT2A (human 5-HT2A receptor) (Homo sapiens, UniProt P28223). Briefly: [3H]-inositol phosphate accumulation. The class given is cell-based.
In test [8] the target is T4, h5-HT2A (human 5-HT2A receptor). As to the kind of experiment: [3H]-ketanserin competition, HEK-293 membranes. The class given is binding.
Test [9] addresses T1, m5-HT2A (C57Bl/6 mouse 5-HT2A receptor). Briefly: saturation radioligand binding, HEK-293 membranes.
Test [10] deals with T2, m5-HT2C (C57Bl/6 mouse 5-HT2C-VNV receptor). Briefly: saturation radioligand binding, HEK-293 membranes.

pEC50, pKd, pKi: −log10 of the molar value.

The values that follow come from article PMC3754837 (Neuropharmacology, 2013).

T1 sequence (P35363 whole entry): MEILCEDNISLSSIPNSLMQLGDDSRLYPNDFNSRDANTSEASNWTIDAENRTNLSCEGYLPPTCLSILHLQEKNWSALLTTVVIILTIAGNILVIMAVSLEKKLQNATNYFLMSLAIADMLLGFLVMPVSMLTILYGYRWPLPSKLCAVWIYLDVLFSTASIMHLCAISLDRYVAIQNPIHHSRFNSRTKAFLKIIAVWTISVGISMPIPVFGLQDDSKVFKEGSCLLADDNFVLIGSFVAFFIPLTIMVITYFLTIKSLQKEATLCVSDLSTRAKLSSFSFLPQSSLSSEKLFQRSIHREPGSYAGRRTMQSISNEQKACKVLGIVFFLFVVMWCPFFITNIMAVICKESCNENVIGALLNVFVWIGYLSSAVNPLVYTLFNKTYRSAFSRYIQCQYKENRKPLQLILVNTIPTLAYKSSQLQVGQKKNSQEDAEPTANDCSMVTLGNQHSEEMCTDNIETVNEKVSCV
T4 sequence (P28223 whole entry): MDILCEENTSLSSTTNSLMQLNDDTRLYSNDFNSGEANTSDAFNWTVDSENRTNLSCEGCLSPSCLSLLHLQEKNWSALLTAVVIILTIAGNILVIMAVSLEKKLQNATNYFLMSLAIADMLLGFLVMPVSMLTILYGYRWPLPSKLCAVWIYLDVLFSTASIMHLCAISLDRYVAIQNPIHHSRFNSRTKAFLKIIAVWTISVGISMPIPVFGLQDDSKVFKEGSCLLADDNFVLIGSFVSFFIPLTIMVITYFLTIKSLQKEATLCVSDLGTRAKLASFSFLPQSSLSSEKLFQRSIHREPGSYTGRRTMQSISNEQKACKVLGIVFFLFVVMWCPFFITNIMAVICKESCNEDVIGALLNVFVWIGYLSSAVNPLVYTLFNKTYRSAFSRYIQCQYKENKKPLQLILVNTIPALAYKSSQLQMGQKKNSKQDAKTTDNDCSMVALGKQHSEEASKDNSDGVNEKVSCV

For the compound `COc1cc(CC(C)N)c(OC)cc1I` (racemic) [(±)-DOI], the pEC50 is 8.59 in [1], 8.26 in [4] and 8.47 in test [5]. The results for the pKi in test [2], in test [3] and in test [6] were 7.33, 8.40 and 7.72, respectively.

In the case of `CN(C)[C@H]1Cc2ccccc2[C@H](c2ccccc2)C1` [(+)-PAT], the figures for the negative-log EC50 (pEC50) in [7], in [1] and in test [5] were 6.63, 6.45 and 5.67, respectively. Besides, the pKi in test [8] was 6.33; in [2], 5.76; in [3], 6.48.

`CN(C)[C@@H]1Cc2ccccc2[C@@H](c2ccccc2)C1` [(−)-PAT]: the pKi was 6.99 in test [8], 7.28 in test [2] and 6.94 in test [3]. Besides, the pEC50 in [5] is 7.41.

`Cc1ccc([C@H]2C[C@H](N(C)C)Cc3ccccc32)cc1` [Methyl-PAT, (−)-(2S, 4R)-trans-4-(4′-methyl)-N,N-dimethylaminotetralin]: the pKi in [8] was 6.75; in [2], 6.06; in test [3], 6.49; in [6], 6.89. In addition, the pEC50 in test [4] is 5.95; in [5], 6.09.

Consider `Cn1ccc2cc3c(cc21)CCN3C(=O)Nc1cccnc1` [SB-206553], for which the figures for the pKi in test [8] and in test [3] were 6.17 and 6.47, respectively.

As to `Cc1cc2c(cc1Cl)N(C(=O)Nc1ccc(Oc3cccnc3C)nc1)CC2` [SB-242084], the negative-log Ki (pKi) in test [8] was 6.84; in test [2] it was 10.00; in test [3] it was 7.02; in test [6], 8.82.

The compound `O=C(c1ccc(F)cc1)C1CCN(CCn2c(=O)[nH]c3ccccc3c2=O)CC1` [[^3H]-ketanserin] gave a pKd in [9] of 9.04.

As to `CN1C[C@@H](NS(=O)(=O)N(C)C)C[C@@H]2c3cccc4c3c(cn4C)C[C@H]21` [[^3H]-mesulergine], the pKd in [10] was 8.66.

One may read the pEC50 as −log10 of the EC50, conventionally taken in molar units. As usually defined, the pKi is the Ki on a negative log10 scale, so that one unit is a factor of ten. The low end stands for a high Ki, the high end for a low Ki. As a reminder, the pKd is −log10 of the Kd, conventionally taken in molar units. Read a high pKd as a small Kd.
